According to patent publication US9605002B2, “5,5-heteroaromatic anti-infective compounds” (priority 2012, dated 2017):
Converted amounts (≈) assume the structure as drawn.

Legend:
[1] = test system: M. tuberculosis (Mtb) H37Rv; assay: Microplate Alamar Blue Assay (MABA), GAS media, replicating Mtb; type: cell-based, Mycobacterium tuberculosis; conditions: Mycobacterium tuberculosis; GAS (glycerol-alanine-salt) media, replicating H37Rv; read-out: GAS media: replicating H37Rv Mtb: MIC 90
[2] = test system: M. tuberculosis (Mtb) H37Rv; assay: Microplate Alamar Blue Assay (MABA), 7H12 media, replicating Mtb; type: cell-based; conditions: Mycobacterium tuberculosis, 7H12 media (no glycerol), read-out: 7H12 media: Replicating H37Rv Mtb: MIC 90
[3] = test system: VERO kidney epithelial cells; assay: VERO toxicity assessment; conditions: Chlorocebus sabaeus, Vero, read-out: VERO: IC50

Row | Compound | MIC90 [1] | MIC90 [2] | IC50 [3]
1 | CCc1nc2sc(C)cn2c1C(=O)OC [ND-009743] | < 32 µM | < 32 µM | < 32 µM
2 | COC(=O)c1c(C)nc2sc(C)c(C)n12 [ND-009744] | < 32 µM | < 32 µM | < 32 µM
3 | CCc1nc2sc(C)cn2c1C(=O)O [ND-009745] | < 32 µM | < 32 µM | < 32 µM
4 | Cc1cn2c(C(=O)NCc3ccccc3)c(C)nc2s1 [ND-009749] | < 2 µM | < 2 µM | < 32 µM
5 | Cc1cn2c(C(=O)NCc3cccc(F)c3)c(C)nc2s1 [ND-009762] | < 2 µM | < 2 µM | < 32 µM
6 | COc1cccc(CNC(=O)c2c(C)nc3sc(C)cn23)c1 [ND-009763] | < 2 µM | < 2 µM | < 32 µM
7 | COc1ccc(COC(=O)c2c(C)nc3sc(C)cn23)cc1 [ND-010050] | 2 to 10 µM | 10 to 20 µM (≈ 3.16 to 6.33 µg/mL) | < 32 µM
8 | Cc1nn2c(C(=O)OCc3ccccc3)c(C)nc2s1 [ND-010475] | < 2 µM | 10 to 20 µM (≈ 2.87 to 5.75 µg/mL) | < 32 µM
9 | Cc1cn2c(C(=O)NCc3ccccc3Cl)c(C)nc2s1 [ND-020001] | < 2 µM | < 2 µM | < 32 µM
10 | Cc1cn2c(C(=O)NCc3cc(F)ccc3F)c(C)nc2s1 [ND-020002] | < 2 µM | < 2 µM | < 32 µM
11 | Cc1cn2c(C(=O)NCc3ccc(F)cc3)c(C)nc2s1 [ND-020003] | < 2 µM | 2 to 10 µM (≈ 0.607 to 3.03 µg/mL) | < 32 µM
12 | Cc1cn2c(C(=O)NCc3cc(F)cc(F)c3)c(C)nc2s1 [ND-020004] | < 2 µM | < 2 µM | < 32 µM
13 | Cc1cn2c(C(=O)NCc3cc(Cl)cc(Cl)c3)c(C)nc2s1 [ND-020005] | < 2 µM | < 2 µM | < 32 µM
14 | Cc1cn2c(C(=O)NCc3ccc(OC(F)(F)F)cc3)c(C)nc2s1 [ND-020006] | < 2 µM | < 2 µM | < 32 µM
15 | Cc1cn2c(C(=O)NCc3cccc(OC(F)(F)F)c3)c(C)nc2s1 [ND-020007] | < 2 µM | < 2 µM | < 32 µM
16 | Cc1cn2c(C(=O)NCc3cccc(C(F)(F)F)c3)c(C)nc2s1 [ND-020008] | < 2 µM | < 2 µM | < 32 µM

Row | Compound | MIC90 [1] | MIC90 [2] | IC50 [3]
17 | Cc1cn2c(C(=O)NCc3ccc(C(F)(F)F)cc3)c(C)nc2s1 [ND-020009] | < 2 µM | < 2 µM | < 32 µM
18 | CCc1nc2sc(C)cn2c1C(=O)NCc1ccc(C(F)(F)F)cc1 [ND-020010] | < 2 µM | < 2 µM | < 32 µM
19 | CCc1nc2sc(Cl)cn2c1C(=O)NCc1ccc(C(F)(F)F)cc1 [ND-020011] | < 2 µM | 2 to 10 µM (≈ 0.776 to 3.88 µg/mL) | < 32 µM
20 | Cc1nc2sc(Cl)cn2c1C(=O)NCc1ccc(C(F)(F)F)cc1 [ND-020012] | < 2 µM | < 2 µM | < 32 µM
21 | Cc1nc2sc(C)c(C)n2c1C(=O)NCc1ccc(C(F)(F)F)cc1 [ND-020013] | 2 to 10 µM | 10 to 20 µM (≈ 3.67 to 7.35 µg/mL) | < 32 µM
22 | Cc1cn2c(C(=O)NCc3cccc(Cl)c3)c(C(F)(F)F)nc2s1 [ND-020014] | < 2 µM | 2 to 10 µM (≈ 0.748 to 3.74 µg/mL) | < 32 µM
23 | Cc1nc2sc(C(F)(F)F)cn2c1C(=O)NCc1ccc(Cl)cc1 [ND-020015] | < 2 µM | 2 to 10 µM (≈ 0.748 to 3.74 µg/mL) | < 32 µM
24 | Cc1cn2c(C(=O)NCc3ncc(C(F)(F)F)cc3Cl)c(C)nc2s1 [ND-020016] | < 2 µM | < 2 µM | < 32 µM
25 | COc1cc(CNC(=O)c2c(C)nc3sc(C)cn23)ccn1 [ND-020017] | < 2 µM | 2 to 10 µM (≈ 0.633 to 3.16 µg/mL) | < 32 µM
26 | Cc1cn2c(C(=O)NCc3ccc4c(c3)OCC4)c(C)nc2s1 [ND-020018] | < 2 µM | < 2 µM | < 32 µM
27 | Cc1cn2c(C(=O)NCc3cccc(N(C)C)c3)c(C)nc2s1 [ND-020019] | < 2 µM | < 2 µM | < 32 µM
28 | Cc1cn2c(C(=O)NCc3ccc(N(C)C)cc3)c(C)nc2s1 [ND-020020] | < 2 µM | < 2 µM | < 32 µM
29 | CNc1ccc(CNC(=O)c2c(C)nc3sc(C)cn23)cc1 [ND-020021] | < 2 µM | < 2 µM | < 32 µM
30 | Cc1nc2sc(Cl)cn2c1C(=O)NCc1ccc(N(C)C)cc1 [ND-020022] | < 2 µM | < 2 µM | < 32 µM
31 | CCc1nc2sc(Cl)cn2c1C(=O)NCc1ccc(N(C)C)cc1 [ND-020023] | < 2 µM | < 2 µM | < 32 µM
